Source: US20240301003A1 (NoNO Inc., priority 2021, published 2024)
Entries after “also recorded” stand apart in the source; their conditions may differ. Where two headings read alike, the source gives them in different places. Where a SMILES comes first, the peptide text is derived from it. Where no end group is shown, it is not given here. [ ]: non-standard residue; d: D form.

Experiments:
[1] = rat, in vivo, sc, 25 mg/kg
Protocol: (§1) Rats were anaesthetized in the supine position (Isoflurane 1.5--%) and allowed to breath spontaneously in 0.5 L/min 02. The left femoral artery was cannulated for blood sampling.
(§2) Test agents were prepared at the stablish concentration in a total volume of vehicle. Pulmonary instillation was performed by intubation with a 14G catheter connected to a 1 cc syringe and the test agent will be delivered through the catheter. Subcutaneous (SQ or SC) injection was injected into the area of the left flank, no more than 2 ml of total volume per site.
(§3) Each dose was evaluated in 3 rats for each administration strategy. […] For the first experiment, evaluating two different administration routes (SQ and PI), blood samples were collected at 8 different timepoints: Pre and at 7 additional times (1, 2.5, 5, 10, 15, 30, 60 min) post dose (250 ul/sample).
(§4) HPLC quantification: Plasma was separated from blood and stored at −−−80° C. until used. […] Standard curves for HPLC were generated from plasma samples spiked with known quantities of test agent.

[2] = tested on: histamine release; conditions: rat, in vivo, iv, 7.6 mg/kg
Protocol: (§5) Histamine levels were quantified by using commercially available histamine ELISA assay kit (Histamine ELISA-H1531-K01, Eagle Bioscience). The plates were coated with the plasma samples (50 ul/well) incubated for 60 minutes at room temperature on an orbital shaker with medium frequency. Then 100 ul of enzyme conjugate was added to the wells and incubated for 20 minutes at room temperature. […] The reaction was stopped with 100 ul H2SO4. Absorbance was determined on an ELISA plate reader at 450 nm.
(§6) Blood samples were taken at pre-injection and at 0, 1, 2.5, 5, 10, 15, 30- and 60-minutes post dose and used for histamine levels quantification using commercially available kit.

[3] = biological target: tPA (Homo sapiens, UniProt P00750)
Sequence of tPA (P00750 36-562): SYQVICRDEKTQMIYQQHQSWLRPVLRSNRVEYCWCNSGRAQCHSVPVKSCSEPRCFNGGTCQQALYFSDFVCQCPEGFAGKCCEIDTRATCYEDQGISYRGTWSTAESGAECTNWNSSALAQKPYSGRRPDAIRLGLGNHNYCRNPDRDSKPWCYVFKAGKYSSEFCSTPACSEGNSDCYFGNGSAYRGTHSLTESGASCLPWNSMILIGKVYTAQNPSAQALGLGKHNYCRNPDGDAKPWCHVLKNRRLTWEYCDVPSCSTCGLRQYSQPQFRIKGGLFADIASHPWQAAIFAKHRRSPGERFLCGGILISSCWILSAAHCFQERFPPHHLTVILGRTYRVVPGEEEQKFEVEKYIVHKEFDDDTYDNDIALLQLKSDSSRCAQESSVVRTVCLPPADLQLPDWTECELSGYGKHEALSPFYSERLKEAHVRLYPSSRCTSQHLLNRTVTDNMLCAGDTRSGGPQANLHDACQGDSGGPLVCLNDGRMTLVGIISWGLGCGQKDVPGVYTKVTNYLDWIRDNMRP

[4] = biological target: T1, PSD95PDZ2 (Homo sapiens, UniProt P78352); test: Competitive ELISA with biotinylated-NA-1; conditions: for IC50's relative to each other: FIG. 11, within the margin of error
Target sequence in this assay (P78352 160-246 limits assumed): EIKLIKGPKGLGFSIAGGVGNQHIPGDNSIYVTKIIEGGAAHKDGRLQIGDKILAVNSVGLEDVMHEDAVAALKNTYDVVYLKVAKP

[5] = MTD studies and renal toxicity in rats (creatinine, BUN)
[6] = Plasma concentrations 15 minutes post subcutaneous dose (animals of the 3PVO model); assay type: in vivo, rat
Protocol: Unlike transient models of stroke in rats where much lower doses are required for neuroprotection, neuroprotection in 3 pial vessel occlusion models of stroke seems to require plasma concentrations of nerinetide at or above 2 ug/mL (or molar equivalent). […] Although the plasma levels continue to increase through about 3 hours then decrease, it is important to achieve rapid accumulation in the blood and brain for emergency indications like stroke. […] For pharmacokinetic sample analysis, calibration standard samples at concentrations of 0, 2.5, 5, 10, 15, 20 and 40 ug/mL of nerinetide were prepared by spiking 1 μL of the appropriate stock to 100 μL of plasma. […] Data is presented as mean±SD.

[7] = NA-3 pharmacokinetics after subcutaneous injection in non-human primates; assay type: in vivo, cynomolgus macaques; conditions: for plasma concentrations achieved: cynomolgus macaques
Excerpt: All values are presented as mean±SD; Statistical significance when compared to nerinetide alone is indicated as * (one-way ANOVA with post-hoc turkey's correction, *P<0.01). (Cmax: maximum plasma concentrations based on the extrapolated time-zero value; t1/2: half-life at terminal phase; tmax: time to reach Cmax; AUC0-t: area under the concentration-time curve from 0 to the last measured value; AUC0-inf: extrapolated area under the concentration-time curve from 0 to infinity; Cl: total clearance). Data is presented as mean±SD of three-four animals per group. The (-) represent data not reported due to an extrapolation of the AUC0-inf greater than 20% and R^2 lower than 0.9.

[8] = Physiologic parameters of NHP animals post NA-3 subcutaneous dose; assay type: in vivo, cynomolgus macaques
[9] = tested on: histamine release; test: Histamine release in rats, plasma histamine ELISA; conditions: rats
Protocol: as §5, §6

[10] = Pharmacokinetic analysis in rats (subcutaneous, pulmonary instillation, intravenous, intramuscular), HPLC
Protocol: as §1, §2, §3, §4

[11] = biological target: PSD-95 PDZ domain 2 (UniProt P78352); test: competitive ELISA on coated PSD95PDZ2
Sequence of PSD-95 PDZ domain 2 (P78352 160-246 limits assumed): as above

[12] = biological target: T1, PSD95PDZ2; test: direct ELISA; biotinylated peptide (Bio-D-NA1)
Target sequence in this assay (P78352 160-246): as the sequence (P78352 160-246 limits assumed) above

[13] = biological target: PSD-95 PDZ domain 2 (UniProt P78352); test: competitive ELISA on coated PSD95PDZ2, competitor biotinylated NA-1
[14] = biological target: T1, PSD95PDZ2; test: direct ELISA; biotinylated peptide (Bio-D-Tat-L-NA1); unit printed "um"
Target sequence in this assay (P78352 160-246): as the sequence (P78352 160-246 limits assumed) above

[15] = tested on: plasmin; test: digested with plasmin
[16] = rat plasma in vitro with tPA administered simultaneously

**Q.** With `CC[C@H](C)[C@H](NC(=O)[C@H](CO)NC(=O)[C@H](CO)NC(=O)[C@H](CC(C)C)NC(=O)[C@H](CCCCN)NC(=O)[C@@H](CCCNC(=N)N)NC(=O)[C@@H](CCCNC(=N)N)NC(=O)[C@@H](CCCNC(=N)N)NC(=O)[C@@H](CCC(N)=O)NC(=O)[C@@H](CCCNC(=N)N)NC(=O)[C@@H](CCCNC(=N)N)NC(=O)[C@@H](CCCCN)NC(=O)[C@@H](CCCCN)NC(=O)[C@@H](CCCNC(=N)N)NC(=O)CNC(=O)[C@H](N)Cc1ccc(O)cc1)C(=O)N[C@@H](CCC(=O)O)C(=O)N[C@@H](CO)C(=O)N[C@@H](CC(=O)O)C(=O)N[C@H](C(=O)O)C(C)C` [D-Tat-L-2B9C] (HELM PEPTIDE1{[dY].G.[dR].[dK].[dK].[dR].[dR].[dQ].[dR].[dR].[dR].K.L.S.S.I.E.S.D.V}$$$$V2.0; N-terminus and C-terminus assumed) as the compound, how does the “AUC compared with subcutaneous NA-1” value [1] read?
**A.** increased Cmax and AUC relative to subcutaneous NA-1 but not to the same extent

**Q.** What about the “Cmax compared with subcutaneous NA-1” value [1] of the same compound?
**A.** increased Cmax and AUC relative to subcutaneous NA-1 but not to the same extent

**Q.** What about the histamine release [2] of the same compound?
**A.** did result in significant histamine release

**Q.** And the “degradation, control treatment with tPA” value [3]?
**A.** no degradation

**Q.** And the IC50 [4]?
**A.** < 5000 nM

**Q.** And the “IC50's relative to each other” value [4]?
**A.** within a factor of two of each other

**Q.** What about the “EC50 (compared between peptides)” value ([4]; PSD-95 domain 2, FIG. 12) of the same compound?
**A.** about the same within experimental error

**Q.** And the “creatinine versus the same dose level of NA-3” value ([5]; rats, subcutaneous 25 mg/kg)?
**A.** Much less creatinine is observed

**Q.** With `CC[C@H](C)[C@H](NC(=O)[C@@H](CO)NC(=O)[C@@H](CO)NC(=O)[C@@H](CC(C)C)NC(=O)[C@@H](CCCCN)NC(=O)[C@@H](CCCNC(=N)N)NC(=O)[C@@H](CCCNC(=N)N)NC(=O)[C@@H](CCCNC(=N)N)NC(=O)[C@@H](CCC(N)=O)NC(=O)[C@@H](CCCNC(=N)N)NC(=O)[C@@H](CCCNC(=N)N)NC(=O)[C@@H](CCCCN)NC(=O)[C@@H](CCCCN)NC(=O)[C@@H](CCCNC(=N)N)NC(=O)CNC(=O)[C@H](N)Cc1ccc(O)cc1)C(=O)N[C@@H](CCC(=O)O)C(=O)N[C@@H](CO)C(=O)N[C@@H](CC(=O)O)C(=O)N[C@H](C(=O)O)C(C)C` [NA-3, ygrkkrrqrrrklssIESDV] (HELM PEPTIDE1{[dY].G.[dR].[dK].[dK].[dR].[dR].[dQ].[dR].[dR].[dR].[dK].[dL].[dS].[dS].I.E.S.D.V}$$$$V2.0; N-terminus and C-terminus assumed) as the compound, how does the “plasma concentration compared to nerinetide at the same dose” value ([6]; 15 min post subcutaneous dose) read?
**A.** higher concentration at 15 min post-dose

**Q.** What about the “relation between treatment dose and Cmax” value ([6]; single subcutaneous administration, 2.5, 7.6, 25 mg/kg) of the same compound?
**A.** dose proportionality between the treatment dose and the Cmax

**Q.** And the plasma concentrations achieved ([7]; subcutaneous 7.6 mg/Kg)?
**A.** able to achieve plasma concentrations higher than those demonstrated to be effective in humans

**Q.** And the plasma concentrations achieved ([7]; subcutaneous 25 mg/kg)?
**A.** able to achieve plasma concentrations higher than those demonstrated to be effective in humans

**Q.** And the “Cmax and AUC versus nerinetide IV infusion” value ([7]; subcutaneous 25 mg/kg)?
**A.** greater Cmax and AUC than nerinetide IV infusion

**Q.** And the “drops in blood pressure compared to NA-1” value [8]?
**A.** No significant drops in blood pressure were observed

**Q.** What about the “safety issues in physiologic parameters compared to intravenous nerinetide” value [8] of the same compound?
**A.** no significant safety issues were identified

**Q.** And the IC50 [4]?
**A.** < 5000 nM

**Q.** What about the “IC50's relative to each other” value [4] of the same compound?
**A.** within a factor of two of each other

**Q.** And the histamine release ([9]; 25 mg/kg SQ)?
**A.** resulted in histamine release but still much less than 7.6 mg/kg IV

**Q.** What about the histamine release ([9]; subcutaneous 2.8 mg/kg) of the same compound?
**A.** did not result in significant histamine release

**Q.** What about the histamine release ([9]; subcutaneous 8.3 mg/kg) of the same compound?
**A.** did not result in significant histamine release

**Q.** And the therapeutic index ([5]; minimum effective dose versus highest no observed adverse effect level)?
**A.** low

**Q.** And the “creatinine and BUN values out of range” value ([5]; rats, subcutaneous 7.6 mg/kg or 2.6 mg/kg)?
**A.** No values out of range were observed

**Q.** What about the “persistence of creatinine and BUN increases” value ([5]; rats, subcutaneous 25 mg/kg) of the same compound?
**A.** persisted through day 7

**Q.** What about the “creatinine and BUN (blood urea nitrogen)” value ([5]; rats, subcutaneous 25 mg/kg or 50 mg/kg, day 1 post dose) of the same compound?
**A.** dose-dependent increases in creatinine and BUN

**Q.** And the “creatinine levels on reducing the dose 2-fold” value ([5]; rats, subcutaneous, versus 25 mg/kg NA-3, pre and after 1 day)?
**A.** significant reduction of the NA-3 creatinine levels

**Q.** What about the “plasma concentration and plasma exposure relative to intrapulmonary NA-1” value ([10]; pulmonary instillation) of the same compound?
**A.** higher plasma concentration and a greater plasma exposure

**Q.** And the “CMax after pulmonary instillation” value ([10]; pulmonary instillation 25 mg/kg)?
**A.** higher CMax than for NA-1 or D-Tat-L-2B9C

**Q.** And the “AUC compared with subcutaneous NA-1” value ([10]; subcutaneous 25 mg/kg)?
**A.** increased

**Q.** And the “Cmax compared with subcutaneous NA-1” value ([10]; subcutaneous 25 mg/kg)?
**A.** increased

**Q.** And the “dose dependence of Cmax and AUC” value ([10]; subcutaneous 25, 8.3, 2.8 mg/kg)?
**A.** dose-dependent increasing linearly with dose

**Q.** Which fold change of EC50 against NA-1 and D-Tat-L-2B9C [11] does the source give for D-NA-1 (peptide) here?
**A.** 10 fold

**Q.** With D-NA-1 NA1 as the compound, how does the EC50 [12] read?
**A.** 1380 nM

**Q.** Which ratio of IC50 against D-Tat-L-IESDV [13] does the source give for D-TAT-L-2B9c (peptide) here?
**A.** < 2 fold

**Q.** With D-Tat-L-NA-1 as the compound, how does the EC50 [14] read?
**A.** 139 nM

**Q.** Which fragment found [15] does the source give for YGRKKRRQRRRKLSSIESDV here?
**A.** RRQRRRKLSSIESDV; also recorded: RQRRRKLSSIESDV; also recorded: QRRRKLSSIESDV; also recorded: RRKLSSIESDV; also recorded: RKLSSIESDV; also recorded: KLSSIESDV; also recorded: LSSIESDV

**Q.** Which not cleaved [16] does the source give for “yGrkkrrqrrrKLSSIESDV ([dY]G[dR][dK][dK][dR][dR][dQ][dR][dR][dR]KLSSIESDV)” here?
**A.** only negligible degradation when co-administered with tPA
